Drawing on ChEMBL document CHEMBL1201862, “PubChem BioAssay data set” (2004), this text covers AC50, EC50 and CC50 for 46 compounds.

A short description of assay [1]: Luminescence Cell-Based Dose Retest to Confirm Inhibitors of Cancer Stem Cells. [Related pubchem assays (depositor defined):AID2717, AID2721]. The class given is functional, Homo sapiens. The following applies: Homo sapiens.
For assay [2], the target named is T1, Heat shock factor protein 1 (Mus musculus, UniProt P38532).
T1 sequence (P38532 whole entry): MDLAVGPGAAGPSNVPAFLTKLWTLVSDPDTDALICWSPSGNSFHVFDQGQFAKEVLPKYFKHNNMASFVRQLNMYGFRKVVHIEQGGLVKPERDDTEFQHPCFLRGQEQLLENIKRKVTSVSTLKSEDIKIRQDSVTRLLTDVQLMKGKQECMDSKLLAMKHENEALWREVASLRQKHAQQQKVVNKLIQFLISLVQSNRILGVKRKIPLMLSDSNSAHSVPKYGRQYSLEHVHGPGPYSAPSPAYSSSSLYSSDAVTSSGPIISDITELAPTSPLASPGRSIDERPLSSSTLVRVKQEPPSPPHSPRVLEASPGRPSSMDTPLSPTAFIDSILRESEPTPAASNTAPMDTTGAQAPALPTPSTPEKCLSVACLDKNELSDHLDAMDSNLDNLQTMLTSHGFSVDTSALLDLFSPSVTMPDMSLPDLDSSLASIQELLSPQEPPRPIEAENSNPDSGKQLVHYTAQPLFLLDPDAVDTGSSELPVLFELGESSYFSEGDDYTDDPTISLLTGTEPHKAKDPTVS
The experiment in a line: enhancement of HSF1-driven luciferase signal – cell-based, NIH3T3, luminescence, dose retest, confirmation (AID 435004).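 Further: stress induced by proteasome inhibitor MG132 added 30 min after compound; luciferase reporter driven by HSF1 response element in NIH3T3 cells; actives raise luminescence as potentiators of the MG132 stress response.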 The format is functional.

Assay [3] can be described thus: Luminescence Cell-Based Dose Confirmation HTS to Identify Activators of 5'UTR Stem-Loop Driven Alpha-Synuclein mRNA Translation in H4 Neuroglioblastoma Cells. [Related pubchem assays: 1829 (Project Summary), 1814 (Primary HTS)]. The class given is functional.
Assay [4] in a line: Luminescence Cell-Based Dose Response HTS to Identify Activators of Luciferase Translation or Activity in H4 […] Cells. [Related pubchem assays: 1829 (Project Summary), 1814 (Primary HTS)]. The class given is functional.
Another assay has as its system H4. Put plainly: Luminescence Cell-Based Dose Response HTS to Identify Activators of 5'UTR Stem-Loop Driven Prion Protein mRNA Translation in H4 Neuroglioblastoma Cells. [Related pubchem assays: 1829 (Project Summary), 1814 (Primary HTS)]. The class given is functional. The following applies: Homo sapiens.
Assay [5] deals with FAD-linked sulfhydryl oxidase ALR (Homo sapiens, UniProt P55789). Put plainly: ALR-catalysed DTT oxidation blockers – biochemical, H2O2 detection, luminescence, cherry-pick, dose response (AID 493248).
For a further assay, the target named is Cytochrome P450 3A4 (Homo sapiens, UniProt P08684).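 Further: CYP3A4 tested as one member of a cytochrome P450 panel screen.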
A further assay deals with Cytochrome P450 2C9 (Homo sapiens, UniProt P11712).
For the next assay, the target named is Cytochrome P450 2D6 (Homo sapiens, UniProt P10635).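 Further: CYP2D6 member of a cytochrome P450 panel assay.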
Assay [6] in a line: Luminescence Cell-Based Dose Response HTS to Identify Inhibitors of 5'UTR Stem-Loop Driven Prion Protein mRNA Translation in H4 Neuroglioblastoma Cells. [Related pubchem assays: 1827 (Project Summary), 1813 (Primary HTS)]. The format is functional.
Assay [7] is described as follows: alpha-synuclein stem-loop luciferase translation blockers – H4 neuroglioma cells, luminescence, confirmation (AID 1988). The class given is functional, cell-based.
A short description of assay [8]: luciferase reporter signal suppression in cells – H4 neuroglioma cells, luminescence, dose response (AID 1990). The class given is functional, cell-based. On the technique in general: Reporter assays use an easily measured gene product as a stand-in for the process of interest.
Assay [9] in a line: viability of uninfected HEp-2 cells – cell-based, HTS, cytotoxicity control for RSV inhibitor project, dose response (AID 2410). The format is functional. The following applies: human respiratory syncytial virus.
Another assay deals with Cytochrome P450 2C19 (Homo sapiens, UniProt P33261). The experiment in a line: Cytochrome panel assay with activity outcomes. Panel member name: p450-cyp2c19 Compounds with AC50 equal or less than 10 uM are considered active. The class given is functional. The following applies: read-out: AC50.
Assay [10] can be described thus: NIH3T3 cell viability loss – ATP luminescence, mouse fibroblasts, counter-screen, dose response (AID 2010).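 Further: cells exposed to compound for about 90 hours before reading.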 The following applies: NIH3T3. The format is functional, cell-based. In general terms: Counterscreens check selectivity or assay interference.
A short description of assay [11]: Trypanosoma cruzi growth suppression in host cells – NIH3T3 host cells, beta-gal luminescence, confirmation (AID 2044).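 Further: intracellular parasites grown in NIH/3T3 mouse fibroblasts as host cells; luminescent beta-galactosidase reporter signal from transgenic T. cruzi replicating inside host cells; inhibitors lower the luminescence signal.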 The format is functional, cell-based.

“And” between values parts separate entries of the source, which are not always exact repeats. Identical values can stand only once. The source made the active and inactive calls.

Sequence of Cytochrome P450 3A4 (P08684 whole entry): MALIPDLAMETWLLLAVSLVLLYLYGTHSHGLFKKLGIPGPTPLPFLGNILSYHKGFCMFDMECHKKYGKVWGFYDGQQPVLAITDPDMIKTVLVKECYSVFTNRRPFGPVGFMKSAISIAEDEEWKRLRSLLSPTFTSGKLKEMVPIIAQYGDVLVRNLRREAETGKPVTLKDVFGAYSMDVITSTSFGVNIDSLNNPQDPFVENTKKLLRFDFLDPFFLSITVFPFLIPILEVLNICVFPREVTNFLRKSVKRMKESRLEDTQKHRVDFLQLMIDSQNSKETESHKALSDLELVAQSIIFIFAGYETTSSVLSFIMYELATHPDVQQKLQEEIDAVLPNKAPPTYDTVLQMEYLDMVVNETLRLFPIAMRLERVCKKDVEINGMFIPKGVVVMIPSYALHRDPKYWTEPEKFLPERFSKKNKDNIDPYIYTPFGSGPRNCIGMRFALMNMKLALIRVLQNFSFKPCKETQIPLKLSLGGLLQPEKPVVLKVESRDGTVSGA
Sequence of FAD-linked sulfhydryl oxidase ALR (P55789 whole entry): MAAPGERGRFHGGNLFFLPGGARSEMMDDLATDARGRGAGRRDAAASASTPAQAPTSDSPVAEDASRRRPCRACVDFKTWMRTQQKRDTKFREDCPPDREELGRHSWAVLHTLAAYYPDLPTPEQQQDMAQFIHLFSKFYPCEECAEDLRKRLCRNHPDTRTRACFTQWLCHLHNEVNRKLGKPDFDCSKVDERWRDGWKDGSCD
Sequence of Cytochrome P450 2C9 (P11712 whole entry): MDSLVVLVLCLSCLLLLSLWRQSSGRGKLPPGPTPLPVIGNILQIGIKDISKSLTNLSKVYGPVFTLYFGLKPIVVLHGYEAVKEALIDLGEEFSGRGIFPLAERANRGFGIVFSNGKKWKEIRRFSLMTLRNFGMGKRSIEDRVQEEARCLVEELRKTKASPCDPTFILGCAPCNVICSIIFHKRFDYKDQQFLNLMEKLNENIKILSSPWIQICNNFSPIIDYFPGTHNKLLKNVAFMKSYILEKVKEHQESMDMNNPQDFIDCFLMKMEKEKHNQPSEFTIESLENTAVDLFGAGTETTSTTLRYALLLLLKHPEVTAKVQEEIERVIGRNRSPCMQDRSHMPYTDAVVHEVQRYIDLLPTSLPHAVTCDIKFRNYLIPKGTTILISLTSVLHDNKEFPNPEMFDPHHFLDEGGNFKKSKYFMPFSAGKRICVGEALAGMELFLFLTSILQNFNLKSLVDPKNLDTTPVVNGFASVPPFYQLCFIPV
Sequence of Cytochrome P450 2D6 (P10635 whole entry): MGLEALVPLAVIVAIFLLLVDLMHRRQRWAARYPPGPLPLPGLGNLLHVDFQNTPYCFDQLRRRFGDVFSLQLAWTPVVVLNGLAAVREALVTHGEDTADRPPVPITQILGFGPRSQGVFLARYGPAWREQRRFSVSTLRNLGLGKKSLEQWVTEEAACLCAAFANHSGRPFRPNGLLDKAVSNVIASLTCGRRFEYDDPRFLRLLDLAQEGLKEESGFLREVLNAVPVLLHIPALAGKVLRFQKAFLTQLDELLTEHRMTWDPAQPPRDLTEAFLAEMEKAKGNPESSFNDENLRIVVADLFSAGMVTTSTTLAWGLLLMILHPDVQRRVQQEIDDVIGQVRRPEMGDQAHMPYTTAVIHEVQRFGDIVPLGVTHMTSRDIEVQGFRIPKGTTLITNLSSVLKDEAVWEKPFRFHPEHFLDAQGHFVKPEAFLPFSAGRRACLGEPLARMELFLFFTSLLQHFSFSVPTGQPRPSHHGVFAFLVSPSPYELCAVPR
Sequence of Cytochrome P450 2C19 (P33261 whole entry): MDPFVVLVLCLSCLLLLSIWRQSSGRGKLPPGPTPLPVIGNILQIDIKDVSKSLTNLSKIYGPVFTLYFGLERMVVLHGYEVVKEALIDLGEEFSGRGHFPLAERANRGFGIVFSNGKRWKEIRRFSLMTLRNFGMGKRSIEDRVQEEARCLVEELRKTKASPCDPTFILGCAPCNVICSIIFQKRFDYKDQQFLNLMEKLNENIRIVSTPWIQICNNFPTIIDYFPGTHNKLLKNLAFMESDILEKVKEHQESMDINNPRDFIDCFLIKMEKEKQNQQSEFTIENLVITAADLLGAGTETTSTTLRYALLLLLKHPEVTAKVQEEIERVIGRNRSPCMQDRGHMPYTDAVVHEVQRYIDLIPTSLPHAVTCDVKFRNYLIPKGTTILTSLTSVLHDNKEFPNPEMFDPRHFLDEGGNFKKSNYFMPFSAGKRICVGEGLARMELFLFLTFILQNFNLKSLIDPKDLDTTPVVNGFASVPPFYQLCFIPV

For `Cn1c(-c2ccsc2)c(-c2cccs2)c2cc(-c3ccc4[nH]ccc4c3)ccc21`, the AC50 in assay [1] was 9.76 µM (active).
Take `CCN(CC)S(=O)(=O)c1cccc(C(=O)OCC(=O)N2CC(=O)Nc3ccccc32)c1`: the EC50 in [2] is > 260 µM (inactive).
As for `[O-][n+]1onc2c1CCc1nnccc1-2`, the EC50 in assay [3] is 11.4 µM (active); in [4], 8.72 µM (active); in the assay with H4 it was > 120 µM (not active).
On to `COc1ccc(CSC2=NCCN2)cc1Cl`, for which the AC50 in assay [5] was 0.021 µM (active).
For `c1ccc(-c2nnsc2Sc2ccccn2)cc1`, the EC50 in assay [3] was 18.3 µM (active); in [4], 11.7 µM (active); in the assay with H4 it was 16.3 µM (active).
As to `Cc1ccccc1Nc1nnc(C)c(O)n1`, the EC50 in [2] was > 260 µM (inactive).
Regarding `O=C(Cn1cnc2c(cnn2-c2ccccc2)c1=O)NCc1ccccc1`, the concentration for a half-maximal effect (EC50) is 8.08 µM (active) in [3], 9.72 µM (active) in assay [4] and 89.8 µM (active) in the assay with H4.
`CCN1CC(CN(C)Cc2nc(COc3ccccc3)no2)CC1=O` (configuration not stated): in assay [2], the EC50 is > 260 µM (inactive).
Take `N#CCCn1c(=O)c(-c2cc(F)cc(F)c2)nc2cnc(Oc3cccc(Cl)c3)nc21`: the figures for the AC50 on Cytochrome P450 3A4 and on Cytochrome P450 2C9 were 10 µM (inconclusive) and 7.94 µM (inconclusive), respectively.
As to `CC(C)C[C@H]1C(=O)N2CCC[C@@H]2[C@]2(O)O[C@](NC(=O)[C@H]3C=C4c5cccc6[nH]c(Br)c(c56)C[C@H]4N(C)C3)(C(C)C)C(=O)N12`, the AC50 on Cytochrome P450 2C9 was 12.6 µM (inconclusive) and 15.8 µM (inconclusive).
In the case of `CCN(CC)CCN1C(=O)C(O)=C(C(=O)c2ccc(OC(C)C)cc2)C1c1cccs1` (configuration not stated), the EC50 in assay [3] was 15.7 µM (active); in assay [4] it was 20.1 µM (active); with H4, 35 µM (active).
Turning to `COc1cc2c(cc1OC)CN(c1ccc([N+](=O)[O-])cc1C#N)CC2`, the AC50 in assay [5] is > 100 µM (inactive).
Take `COn1c(SC(C)C)nc2ccccc2c1=O`: the concentration at half-maximal activity (AC50) on Cytochrome P450 2C9 was 17.8 µM (inconclusive).
Regarding `Cc1nc([N+](=O)[O-])c(N2CCN(C)CC2)n1Cc1ccccc1`, the AC50 at Cytochrome P450 2D6 is 35.5 µM (inconclusive); on Cytochrome P450 2C9, 39.8 µM (inconclusive).
Consider `COc1ccc(N2CCN(CC(=O)Nc3ccc(C)cc3)CC2)cc1`, for which the AC50 in assay [5] was 3 µM (active).
On to `COc1ccc(OC)c(CNc2ccc3c(c2)nc(C)n3C)c1`, for which the AC50 in assay [5] was 5.53 µM (active).
Turning to `CC(=O)/C(=N/Nc1ccc(Br)cc1)N1CCCc2ccccc21`, the EC50 in assay [6] was > 120 µM (not active); in assay [2], 113 µM (active); in assay [7], 14.5 µM (active); in [8], > 120 µM (not active). For the same compound, the CC50 in assay [9] was 12.8 µM (active).
In the case of `COc1cc(Cl)c(C)cc1NC(=O)CNC(=O)Cn1cnc2ccccc2c1=O`, on Cytochrome P450 2C9, the AC50 was 10 µM (inconclusive).
Consider `Sc1nnc(Cc2noc3ccccc23)n1-c1ccccc1`, for which, in [5], the AC50 was 5.61 µM (active).
`Cc1ccccc1N(CC(=O)NC1CCCC1)C(=O)c1csnn1`: the half-maximal effective concentration (EC50) (in assay [3]; in assay [4]; in the assay with H4) was > 120 µM (not active) in each case.
With `CCOC(=O)c1cc2c(=O)n3ccccc3nc2n(CCOC)/c1=N\C(=O)C(C)(C)C`, the AC50 is 20 µM (inconclusive) on Cytochrome P450 2C19, 31.6 µM (inconclusive) at Cytochrome P450 3A4 and 17.8 µM (inconclusive) at Cytochrome P450 2C9.
As to `N#Cc1cc(Cl)c(NCC2CCCO2)cc1C#N` (configuration not stated), the EC50 in assay [2] was > 260 µM (inactive). Moreover, the CC50 in [9] was 20.9 µM (active).
`Cc1ccc(N/C([S-])=C(/C(=O)c2ccc(C)c([N+](=O)[O-])c2)[n+]2ccccc2)cc1C`: the EC50 was 2.37 µM (active) in assay [3], 16.1 µM (active) in assay [4] and 46.6 µM (active) in the assay on H4. Besides, the AC50 was 25.1 µM (inconclusive) on Cytochrome P450 2D6 and 11.2 µM (inconclusive) at Cytochrome P450 3A4.
As to `CCCCOc1ccc(S(=O)(=O)N2CCN(c3ccc(N4CCN(CC)CC4)nn3)CC2)cc1`, the AC50 in assay [1] is < 0.16 µM (active).
For the compound `CCc1ccccc1NS(=O)(=O)c1cc2c3c(c1)CCN3C(=O)CC2`, the EC50 in assay [2] was > 260 µM (inactive).
`O=C(CCCc1ccccc1)Nc1ccc2c(c1)OCCO2`: the EC50 in assay [2] is 32.2 µM (active).
Consider `CCN(CC(=O)Nc1cccc(OC)c1)CC(=O)Nc1ccc(Br)c(C)c1`, for which, in assay [2], the EC50 was 61.1 µM (active).
Take `N#C/C(=C/c1ccc(N2CCCCC2)o1)c1cccc(F)c1`: the EC50 in assay [3] was 0.141 µM (active); in assay [4] it was 0.355 µM (active); in assay [10], > 60 µM (not active); in assay [11] it was 3.55 µM (active); in the assay with H4, 16.5 µM (active).
For the compound `Cc1cc2oc(C(=O)Nc3c(C)n(C)n(-c4ccccc4)c3=O)c(C)c2cc1C`, the values for the EC50 (in [3]; in assay [4]; with H4) were 46.1 µM (active), > 120 µM (not active) and > 120 µM (not active), respectively.
Regarding `O=C(Nc1cnn(C23CC4CC(CC(C4)C2)C3)c1)c1cc(-c2ccccc2)on1`, the AC50 in [1] was 0.296 µM (active). For the same compound, the EC50 is > 60 µM (not active) in assay [10] and 1.55 µM (active) in [11].
`COc1cc(NC(=O)Nc2cccc(C(C)=O)c2)cc(OC)c1OC`: in [5], the AC50 is 1.72 µM (active).
With `COc1ccccc1-c1nnc(S)n1Cc1ccccc1`, the AC50 in assay [5] was 3.09 µM (active).
For `COc1ccc(C)cc1-n1c(SCC(=O)Nc2cccc(C(=O)O)c2)nc2ccccc2c1=O`, the EC50 in [2] is > 260 µM (inactive).
As for `CCCNC(=O)Nc1ccc(C)cc1C`, the EC50 in [2] is > 260 µM (inactive).
As to `COc1ccc(OC)c(-c2csc(NC(=O)C3=NN(c4ccccc4)C(=O)CC3)n2)c1`, the EC50 (in assay [3]; in [4]; in the assay with H4) was > 120 µM (not active) throughout.
For `O=C(Nc1ccc(S(=O)(=O)N2CCCCC2)cc1)C1CCN(C(=O)c2ccco2)CC1`, the EC50 in [2] is > 260 µM (inactive).
Consider `CCCCN(CCCNc1[nH]cnc2ncnc1-2)c1ccccc1`, for which, in [5], the AC50 is 0.108 µM (active).
On to `CCOc1ccc(S(=O)(=O)N2CCN=C2c2ccccc2)cc1`, for which the AC50 in [1] was 3.19 µM (active).
As to `COc1ccc(SCC2CN(C)CCC2c2ccc(F)cc2)cc1` (configuration not stated), the EC50 in assay [2] was > 260 µM (inactive).
Turning to `COc1ccc(Nc2cccc(Cl)c2)c(C(=O)O)c1`, the AC50 in assay [5] was 2.02 µM (active). Further, the CC50 in assay [9] is 25.3 µM (active).
For `Nc1ccc(CCc2nc3ccccc3o2)cc1`, in [5], the AC50 is 1.16 µM (active).
For the compound `COc1cc(OC)c2ccc(=O)oc2c1C(CCN1CCCC1)c1ccc(N(C)C)cc1` (configuration not stated), the AC50 in assay [5] was 3.33 µM (active).
As to `C=CCN1/C(=N/C(=O)CC)SC2CS(=O)(=O)CC21` (configuration not stated), the AC50 at Cytochrome P450 2C9 was 11.2 µM (inconclusive).
Consider `COc1ccc(C2C=C(C)Nc3ncnn32)cc1` (configuration not stated), for which the EC50 was 19.2 µM (active) in assay [3], 50.5 µM (active) in assay [4] and > 120 µM (not active) with H4.
On to `COc1cc(NC(=S)NC(=O)c2c(OC)cccc2OC)ccc1NC(=O)c1cccs1`, for which the AC50 at Cytochrome P450 2C9 was 1.41 µM (inconclusive).
As to `N#Cc1c(NC(=O)CSc2nnc(-c3ccccc3)o2)sc2c1CCCC2`, the EC50 in [2] is > 260 µM (inactive).

Usually AC50 stands for the concentration giving half of the maximal activity seen. As a reminder, the EC50 is the concentration needed to bring the measured effect to its halfway point. In general, CC50 refers to the concentration at which the toxic effect on the cells reaches its halfway point.
